The text below walks through data of patent US10238113B2, “Method for protecting plants from stress and senescence” (BEN-GURION UNIVERSITY OF THE NEGEV RESEARCH AND DEVELOPMENT …, priority 2008, dated 2019).

The subject of experiment [1] is leaf discs cut from Col and Atxdh mutants rosette leaves. Briefly: Leaf discs treated with purine catabolites under dark-induced stress, remaining chlorophyll. The experiment is classed as in vivo, Arabidopsis thaliana. Particulars: for protection from chlorophyll degradation: 0.1 mM, applied 2 h after 48 h dark treatment, +/- allopurinol, Col and Atxdh mutants. The procedure: (§1) FIG. 8a: xanthine (1 mM) in the presence or absence of allopurinol (1 mM, +/−Allo), was applied for 48 h to leaf discs placed in the dark and photographed 24 h after being transferred to 16 h light/8 h dark regime (left upper panel). Remaining chlorophyll, xanthine, allantoin and allantoate were determined in leaf discs sampled at the beginning of the experiment (light) or after 72 h (as described above) without xanthine (dark). FIG. 8b: allantoin or allantoate (0.1 mM) in the presence or absence of allopurinol (1 mm, +/−Allo) was applied to leaf discs for 2 h in the dark after keeping the discs in the dark for 48 h. Discs were photographed 24 h after being transferred to 16 h light/8 h dark regime (left upper panel). Leaf discs were washed twice before sampling for xanthine, allantoin and allantoate determination (right and bottom panels). Bars show mean±SEM (n=16).
Cell death was visualized in leaves sampled from dark stressed and control unstressed plants, by lactophenol-trypan blue staining followed by destaining in saturated chloral hydrate (Koch E. and Slusarenko A. 1990 Plant Cell 2, 437-445). Total chlorophyll content was measured in extracts of the fully expanded leaves as described before (Brychkova et al., 2007, ibid). The values for remaining chlorophyll content in leaf discs were determined as the amount of chlorophyll per disc divided by the amount of chlorophyll per untreated control and expressed as a percentage. The severity of leaf damage after dark stress was as follows: 1, no damage; 2, <30%; 3, 30-50%; 4, >50% of the leaf area damaged. The average leaf damage was then multiplied by the total number of damaged leaves to determine the damage level. Means±SEM for each treatment are presented.
The dark-induced loss of chlorophyll and the accelerated cell death during recovery may be due to the accumulation of excess oxypurines (FIG. 5a) or to the lack of a protective environment provided by ureides (FIGS. 5b and 5c) or both. To examine this directly, leaf discs cut from Col and Atxdh mutants rosette leaves were treated with xanthine for 48 h in the dark and were sampled after 24 h in the light. […] The observations indicate that ureides may protect chlorophyll from degradation during dark treatment and the recovery period. To elucidate the role of allantoin and allantoate directly, leaf discs were treated with 0.1 mM allantoin or allantoate. […] Importantly, the protection by the ureides was afforded in spite of the significant accumulation of xanthine in allopurinol-treated Col plants and Atxdh mutants (FIG. 8b).

Experiment [2] deals with leaf discs of Col and Ri plants. Briefly: DAB-H2O2 staining of leaf discs treated with allantoin or allantoate. The experiment is classed as in vivo, Arabidopsis thaliana. To be noted: 0.1 mM for 2 h after 24 h dark. The procedure: (§2) FIGS. 9a-9c show reactive oxygen species (ROS) accumulation in the presence of allantoin and allantoate in Arabidopsis wild-type (Col) and xdh1 RNA interference (Ri) lines. FIG. 9a left panel: leaf discs removed from Col plants placed for 24 h in the dark in the presence or absence of allantoin or allantoate (0.1 mM) and then washed and treated with H2O2 (0, 20, 50 mM) for an additional 6 h in the dark. Right panel: remaining chlorophyll determined 24 h after the disc were transferred to a 16 h light/8 h dark regime. Bars show mean±SEM (n=16). […] Total H2O2 relative production (right insert) was quantified in leave discs kept in the dark for 24 h and then treated with allantoin or allantoate for additional 2 h in the dark, using DAB staining Results are from two independent experiments. Error bars indicate SE (n=16). The lower case letters (a, b) indicate P<0.001 for the differences within treatment between ecotypes. […] Leaf discs were treated and analyzed as in FIG. 9b above. Total relative superoxide production was quantified in leaf discs from 2 independent experiments. […]
(§3) Nitroblue tetrazolium (NBT) O2^− staining of leaves was performed essentially according to Jabs T. et al. (1996 Science 273, 1853-1856) and Fryer M. J. et al. (2002 J Exp Bot 53, 1249-1254). […] NBT and DAB stained leaves and leaf discs were quantified using NIH Image Software (Version 1.6). […]

Experiment [3] shares this test system. In words: NBT-O2- staining of leaf discs treated with allantoin or allantoate. The experiment is classed as in vivo, Arabidopsis thaliana. Particulars: 0.1 mM for 2 h after 24 h dark; Col lines. The procedure: as §2, §3
A further experiment has as its system Parsley leaf discs. In words: Allantoin application on senescence in parsley leaf discs exposed to dark stress, chlorophyll content. The experiment is classed as in vivo. The procedure:
FIG. 14 relates to the influence of allantoin application on senescence in parsley leaf discs exposed to dark stress. Parsley leaf discs were kept for 2 days in the light and then transferred to the dark for additional 2 days with or without the addition of 0 to 10 mM allantoin. CL—control undetached leaves in the light.
Reference is also made to FIG. 14 showing that allantoin application prevents leaf spoilage in Parsley. Parsley leaf discs were kept for 2 days in the light and then for 2 days in the dark with or without the addition of 0 to 10 mM allantoin. Undetached leaves kept in the light served as control (CL). The influence of allantoin application on senescence in parsley was examined by measuring the chlorophyll content relative to the content in the control undeteched leaves.

A further experiment relates to tomato leaf discs. Briefly: Allantoin application to tomato leaf discs, chlorophyll degradation. The experiment is classed as in vivo. To be noted: 0.1 mM and 0.5 mM allantoin; discs 2 days dark then 2 days light.
In the next experiment the test system is Col wild type plants. Briefly: Xanthine determination in allopurinol-treated leaves/leaf discs during dark stress. The experiment is classed as in vivo, Arabidopsis thaliana. Particulars: allopurinol applied to wild type plants. The procedure: as §1
Ureides were extracted from leaves with 80% ethanol and determined according to Vogels G. D. and Van Der Drift C. (1970 Anal Biochem 33, 143-157) using allantoic acid and allantoin as references. Six samples were analyzed and averaged for each data points. […] Hypoxanthine/xanthine were determined by high performance liquid chromatography (HPLC) using a 100×2.1 mm ID, ODS-Hypersil (5 μm) column. […] The hypoxanthine and xanthine were detected using standards retention time and UV absorption spectra ratio at 249 nm and 267 nm. […]

For the molecule `NC(=O)NC(NC(N)=O)C(=O)O` [allantoate], the “protection from chlorophyll degradation” value in experiment [1] was “protected the treated leaf discs from chlorophyll degradation”. The “reduction in DAB staining intensity (H2O2)” value in experiment [2] is on record as 2 fold. For the same molecule, in experiment [3], the “NBT staining (superoxide)” value is “significantly reduced staining”.
As to `O=c1[nH]c(=O)c2[nH]cnc2[nH]1` [xanthine], the effect on chlorophyll entry in experiment [1] (1 mM xanthine, 48 h in the dark, sampled after 24 h in the light, Col and Ri leaf discs) is given as “caused a reduction in chlorophyll”.
Turning to `NC(=O)NC1NC(=O)NC1=O` (stereo not drawn) [allantoin], in experiment [1], the “protection from chlorophyll degradation” value was “protected the treated leaf discs from chlorophyll degradation”. Further, the “prevention of chlorophyll loss (chlorophyll content relative to control undetached leaves)” value in the experiment on Parsley leaf discs (0.1-0.5 mM allantoin, 2 days light then 2 days dark) is “particularly effective in preventing the chlorophyll loss”. Besides, the “protection of leaves from chlorophyll degradation and yellowing” value in the experiment with Parsley leaf discs (0.1-10 mM allantoin, summary of parsley and tomato leaf disc results) was “protects leaves from chlorophyll degradation and yellowing”. Moreover, the chlorophyll degradation entry in the experiment with tomato leaf discs is on record as “delayed the chlorophyll degradation”. Further, the “reduction in DAB staining intensity (H2O2)” value in experiment [2] worked out at 2 fold. In experiment [3], the “NBT staining (superoxide)” value was “significantly reduced staining”.
For the molecule `Oc1ncnc2[nH]ncc12` [allopurinol, reference compound], the “effect on xanthine-caused reduction in chlorophyll” value in experiment [1] (allopurinol 1 mM in the presence of 1 mM xanthine, wild type and mutant Ri lines) is “exacerbated”. Besides, in the experiment with Col wild type plants, the xanthine accumulation entry is “led to xanthine accumulation”.
